From article PMC5641094, “A peptide antagonist of Prep1-p160 interaction improves ceramide-induced insulin resistance in skeletal muscle cells” (Oncotarget, 2017)
Where two headings read alike, the source gives them in different places.

What was measured:
L6 cells = experiment: Cell toxicity in L6 cells; assay type: cell-based, rat; conditions: highest concentration 100μM, data not shown
Akt phosphorylation = experiment: Akt phosphorylation, Western blot; assay type: cell-based, rat; conditions: L6 cells with C2cer 10μM or Prep1 transfection, insulin 100nM
Procedure: Figure 5 Effect of Prep1(54-72) peptide on Akt phosphorylation and PGC-1α and GLUT4 protein levels (A-B) L6 control and Prep1 overexpressing cells were stimulated with Insulin (100nM) and/or C2cer (10μM) and incubated with Prep1(54-72). Protein lysates were analyzed by Western blot using antibodies for pAkt, Akt and for the beta-actin, as a loading control. (C) PGC-1α and GLUT4 protein levels were measured by using specific antibodies for these proteins and beta-actin antibody was used as loading control. Blots were detected by ECL and autoradiography. The autoradiographs are representative of four independent experiments. Asterisks denote statistically significant differences (*p<0.05; **p<0.01; ***p<0.001).
Total cell lysates were obtained and separated by SDS-PAGE. Briefly, cells were solubilized with lysis buffer containing 50mM HEPES, 150mM NaCl, 10mM EDTA, 10mM Na4P2O7, 2mM sodium orthovanadate, 50mM NaF, 1mM phenylmethylsulfonyl fluoride, 10μg/ml aprotinin, 10μg/ml leupeptin, pH 7.4, and 1% (v/v) Triton X-100. Lysates were clarified by centrifugation at 12,000g for 20 minutes at 4°C. The protein concentrations in the cell lysates were measured using a Bio-Rad DC (detergent compatible) assay. Immunoprecipitation and Western blot analysis have been performed as previously described.

p160_20-160 = target: T1, p160_20-160 (Homo sapiens, UniProt Q9BQG0); experiment: ELISA-like direct binding of biotinylated Prep1 peptides to coated p160_20-160; conditions: N-terminally biotinylated peptide variants; plate coated with p160_20-160 (0.1μM); streptavidin-HRP; one-site binding fit; triplicate, performed at least twice
T1 construct: were added to a plate coated with p160_20-160 (0.1μM); His6; made in house
T1 sequence (Q9BQG0 20-160): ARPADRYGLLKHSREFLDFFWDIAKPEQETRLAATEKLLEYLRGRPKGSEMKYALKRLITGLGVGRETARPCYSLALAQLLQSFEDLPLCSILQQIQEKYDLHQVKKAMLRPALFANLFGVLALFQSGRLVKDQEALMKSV
Text: To address the significance of the association between Prep1 and p160 mediated by C2cer, we generated a synthetic inhibitor of the Prep1/p160 interaction. […] The synthetic peptide covering such stretch of residues was therefore chosen to generate a potential inhibitor. […] Thus, we designed and chemically synthesized a peptide spanning residues 59-72, hereafter Prep1(59-72), which comprises the predicted α-helix and a short loop at the N-terminus (Supplementary Figure 2A, upper panel). […]
(§1) Figure 3 Design and in vitro effects of Prep1(54-72) peptide on Prep1/p160 association (A) Binding curves of Prep1(59-72) and Prep1(54-72) peptides to p160_20-160 by ELISA-like assays. […] (C) L6 cells were incubated with increasing concentrations of the fluorescein-conjugated peptide (FITC-Prep1(54-72)) and peptide uptake was detected by FACS analysis of fluorescein-labeled cells. […] Protein lysates were immunoprecipitated with Prep1 antibodies and analyzed by Western blot using antibodies for p160 or for Prep1. […] The blots were detected by ECL and autoradiography. […]
ELISA experiments were performed using an integrated platform for High-Throughput Screening (Hamilton Robotics, Bonaduz, CH) comprising a fully equipped Starlet 8 channel liquid handler, a robotic arm, a washer and a multi-wavelength plate reader. […] The binding was detected by anti-His HRP-conjugated antibody. […]

[1] = target: T2, p160_20-160/Prep1_45-155 binding (Homo sapiens, UniProt Q9BQG0); experiment: ELISA-like competition of p160_20-160/Prep1_45-155 binding
T2 construct: pre-incubating the His6-tagged-p160_20-160 at 0.25μM with peptides; made in house
T2 sequence (Q9BQG0 20-160): T1 sequence (Q9BQG0 20-160)
Text: To address the significance of the association between Prep1 and p160 mediated by C2cer, we generated a synthetic inhibitor of the Prep1/p160 interaction. […] The synthetic peptide covering such stretch of residues was therefore chosen to generate a potential inhibitor. […] Thus, we designed and chemically synthesized a peptide spanning residues 59-72, hereafter Prep1(59-72), which comprises the predicted α-helix and a short loop at the N-terminus (Supplementary Figure 2A, upper panel). We also designed and prepared an additional peptide with a slightly longer N-terminal end, named Prep1(54-72) (Supplementary Figure 2A, lower panel), to increase the probability of obtaining a molecule with helical features. […] In order to test the affinity of Prep1 synthetic peptides to p160 protein, ELISA-like experiments were developed where N-terminally biotinylated peptide variants were added to p160_20-160 – coated 96-well plates. As shown in Figure 3A either variants bound p160_20-160 domain in a dose-dependent and saturable manner. […]
as §1
ELISA experiments were performed using an integrated platform for High-Throughput Screening (Hamilton Robotics, Bonaduz, CH) comprising a fully equipped Starlet 8 channel liquid handler, a robotic arm, a washer and a multi-wavelength plate reader. […] In particular, several concentrations of biotinylated peptides at several concentrations were added to a plate coated with p160_20-160 (0.1μM) and binding was detected with streptavidin-HRP. […] The binding was detected by anti-His HRP-conjugated antibody. […]

Row | Kd (p160_20-160) | IC50 ([1]; His6-p160_20-160 0.25μM pre-incubated with peptide 0.001-10μM, plate coated with Prep1_45-155 (0.10μM), anti-His HRP, average of three experiments, read-out: IC50, inhibition of p160_20-160/Prep1_45-155 binding) | IC50 ([1]; as restated in the discussion, read-out: IC50, potency in vitro as complex inhibitor) | Compound | toxicity for the cells (L6 cells) | effect on insulin stimulated Akt phosphorylation (Akt phosphorylation)
1 | – | – | – | CCCCCCCCCCCCC/C=C/[C@@H](O)[C@H](CO)NC(C)=O [C2cer, D-erythro-Sphingosine, N-Acetyl-, reference compound] | slightly toxic | –
2 | 180 nM | 200 nM | ~200 nM | Ac-KQAIYRHPLFPLLALLFEK-NH2 [Prep1(54-72)] | – | rescued insulin effect
